# Measurements as given in the supplement of paper PMC11061612.
# What was measured:
# [1] = test system: C-33-A (Cervical Carcinoma); assay: Bliss excess, mean over the matrix (fraction); higher = more synergy
# Procedure, shortened: (§1)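 Bliss excess equals the observed combination effect minus the expected value EA + EB − EA·EB, where EA and EB are the effects of each agent alone. Combination Emax is the second-highest inhibition within the matrix. Inhibition was scaled from CellTiter-Glo 2.0 luminescence, with 0 set by vehicle wells and 1 by blank wells, after 72 hours of two-drug dosing of cells plated in 1536-well plates.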
# [2] = test system: CPC-N (Small Cell Lung Carcinoma); assay: as above
# Procedure, shortened: as §1
# [3] = test system: ES6 (Ewing's Sarcoma); assay: as above
# Procedure, shortened: as §1
# [4] = test system: MDA-MB-415 (Breast Carcinoma); assay: as above
# Procedure, shortened: as §1
# [5] = test system: SK-CO-1 (Colorectal Carcinoma); assay: as above
# Procedure, shortened: as §1
# [6] = test system: SNU-423 (Hepatocellular Carcinoma); assay: as above
# Procedure, shortened: as §1
# [7] = test system: COR-L88 (Small Cell Lung Carcinoma); assay: combination Emax (second highest fraction inhibited in the dose matrix, 72 h); higher = more inhibition; extreme values may be limits of the assay
# Procedure, shortened: as §1
# [8] = test system: CPC-N (Small Cell Lung Carcinoma); assay: as above
# Procedure, shortened: as §1
# [9] = test system: ES6 (Ewing's Sarcoma); assay: as above
# Procedure, shortened: as §1
# [10] = test system: HPAF-II (Pancreatic Carcinoma); assay: as above
# Procedure, shortened: as §1
# [11] = test system: KALS-1 (Glioblastoma); assay: as above
# Procedure, shortened: as §1
# [12] = test system: LCLC-103H (Non-Small Cell Lung Carcinoma); assay: as above
# Procedure, shortened: as §1
# [13] = test system: LS-1034 (Colorectal Carcinoma); assay: as above
# Procedure, shortened: as §1
# [14] = test system: NCI-H3118 (Head and Neck Carcinoma); assay: as above
# Procedure, shortened: as §1
# [15] = test system: SCC-4 (Oral Cavity Carcinoma); assay: as above
# Procedure, shortened: as §1
# [16] = test system: SK-CO-1 (Colorectal Carcinoma); assay: as above
# Procedure, shortened: as §1
# [17] = test system: SK-N-SH (Neuroblastoma); assay: as above
# Procedure, shortened: as §1
# [18] = test system: SKG-IIIa (Cervical Carcinoma); assay: as above
# Procedure, shortened: as §1
# [19] = test system: T84 (Colorectal Carcinoma); assay: as above
# Procedure, shortened: as §1
# [20] = test system: ZR-75-30 (Breast Carcinoma); assay: as above
# Procedure, shortened: as §1
Compound,Bliss excess [1],Bliss excess [2],Bliss excess [3],Bliss excess [4],Bliss excess [5],Bliss excess [6],combination Emax [7],combination Emax [8],combination Emax [9],combination Emax [10],combination Emax [11],combination Emax [12],combination Emax [13],combination Emax [14],combination Emax [15],combination Emax [16],combination Emax [17],combination Emax [18],combination Emax [19],combination Emax [20]
"CN(CCO)CC[C@H](CSc1ccccc1)Nc1ccc(S(=O)(=O)NC(=O)c2ccc(N3CCC([C@@H](O)c4ccccc4-c4ccc(Cl)cc4)CC3)cc2)cc1S(=O)(=O)C(F)(F)F [AZD4320] + CS(=O)(=O)CCNCc1ccc(-c2ccc3ncnc(Nc4ccc(OCc5cccc(F)c5)c(Cl)c4)c3c2)o1 [Lapatinib] (first compound max 1 µM, 7x7, partner max 10 µM)",0.0074,0.052,-0.0017,0.0355,0.0785,0.017,0.986,0.977,0.971,0.984,0.422,0.488,0.939,0.561,0.942,0.97,0.97,0.479,0.886,0.957
"N#Cc1cnc(Nc2cc(NC[C@H]3CNCCO3)c(C(F)(F)F)cn2)cn1 [SRA737] + CCc1c2c(nc3ccc(O)cc13)-c1cc3c(c(=O)n1C2)COC(=O)[C@]3(O)CC [SN-38] (first compound max 10 µM, 7x7, partner max 0.3 µM)",0.0384,0.0694,-0.0423,0.0404,-0.0667,0.0367,0.645,0.872,0.59,0.547,0.928,0.817,0.873,0.763,0.893,0.893,0.892,0.592,0.815,0.124
"C=CCn1c(=O)c2cnc(Nc3ccc(N4CCN(C)CC4)cc3)nc2n1-c1cccc(C(C)(C)O)n1 [AZD1775] + CCc1c2c(nc3ccc(O)cc13)-c1cc3c(c(=O)n1C2)COC(=O)[C@]3(O)CC [SN-38] (first compound max 1 µM, partner max 0.3 µM)",0.0561,0.0523,-0.0995,-0.009,-0.0355,-0.0644,0.671,0.923,0.607,0.597,0.965,0.709,0.894,0.9,0.902,0.898,0.957,0.725,0.867,0.137
"O=C(c1cc(Cc2n[nH]c(=O)c3ccccc23)ccc1F)N1CCN(C(=O)C2CC2)CC1 [Olaparib] + CN(CC[C@H](CSC1=CC=CC=C1)NC2=C(C=C(C=C2)S(=O)(=O)NC(=O)C3=CC=C(C=C3)N4CCC(CC4)[C@H](C5=CC=CC=C5C6=CC=C(C=C6)Cl)O)S(=O)(=O)C(F)(F)F)CCO [AZD4320] (first compound max 10 µM, 7x7, partner max 1 µM)",0.0014,-0.0247,-0.0216,-0.0718,0.0256,-0.0182,0.961,0.856,0.237,0.796,0.156,0.224,0.0945,0.155,0.338,0.949,0.688,0.137,0.122,0.149
"O=C(c1cc(Cc2n[nH]c(=O)c3ccccc23)ccc1F)N1CCN(C(=O)C2CC2)CC1 [Olaparib] + COc1nnc2ccc(N3CCC(c4ccc(OCCN5CCN(C)C(=O)[C@H]5C)cc4)CC3)nn12 [AZD5153] (first compound max 10 µM, 7x7, partner max 1 µM)",-0.0461,-0.0557,-0.0941,-0.0222,-0.0441,-0.0546,0.214,0.369,0.292,0.334,0.548,0.343,0.453,0.519,0.322,0.7,0.428,0.385,0.0881,0.207
"O=C(c1cc(Cc2n[nH]c(=O)c3ccccc23)ccc1F)N1CCN(C(=O)C2CC2)CC1 [Olaparib] + Cc1c2c(nn1C)CSCc1cc(n(C)n1)CSc1cc(c3ccccc3c1)OCCCc1c(C(=O)O)n(C)c3c-2c(Cl)ccc13 [AZD5991] (first compound max 10 µM, 7x7, partner max 1 µM)",-0.0224,-0.0555,-0.0431,-0.0838,-0.0091,-0.0503,0.227,0.215,0.168,0.0669,0.163,0.192,0.0008,0.352,0.128,0.785,0.333,0.128,0.111,0.197
"Cc1c2c(nn1C)CSCc1cc(n(C)n1)CSc1cc(c3ccccc3c1)OCCCc1c(C(=O)O)n(C)c3c-2c(Cl)ccc13 [AZD5991] + Nc1ccn([C@@H]2O[C@H](CO)[C@@H](O)C2(F)F)c(=O)n1 [Gemcitabine] (first compound max 1 µM, 7x7, partner max 0.3 µM)",0.0332,-0.0387,-0.002,-0.0407,-0.0284,-0.0672,0.485,0.754,0.529,0.268,0.542,0.513,0.614,0.818,0.53,0.864,0.757,0.332,0.521,0.36
"C[C@@H]1COCCN1c1cc(C2([S@](C)(=N)=O)CC2)nc(-c2ccnc3[nH]ccc23)n1 [AZD6738] + Nc1ccn([C@@H]2O[C@H](CO)[C@@H](O)C2(F)F)c(=O)n1 [Gemcitabine] (first compound max 10 µM, 7x7, partner max 0.3 µM)",0.032,0.0021,-0.0072,0.065,0.0365,0.0969,0.756,0.949,0.731,0.577,0.896,0.794,0.902,0.846,0.849,0.897,0.932,0.623,0.793,0.269
"N#Cc1cnc(Nc2cc(NC[C@H]3CNCCO3)c(C(F)(F)F)cn2)cn1 [SRA737] + Nc1ccn([C@@H]2O[C@H](CO)[C@@H](O)C2(F)F)c(=O)n1 [Gemcitabine] (first compound max 10 µM, 7x7, partner max 0.3 µM)",0.0954,0.035,-0.0212,0.115,0.0698,0.0518,0.617,0.916,0.599,0.61,0.87,0.844,0.919,0.772,0.758,0.899,0.852,0.575,0.827,0.312
"C[C@@H](Nc1cc(F)cc(F)c1)c1cc(C(=O)N(C)C)cc2c(=O)cc(N3CCOCC3)oc12 [AZD8186] + CC(=O)c1c(C)c2cnc(Nc3ccc(N4CCNCC4)cn3)nc2n(C2CCCC2)c1=O [Palbociclib] (first compound max 10 µM, 7x7, partner max 10 µM)",-0.0435,-0.0198,-0.0155,-0.0443,0.0163,0.0188,0.201,0.262,0.412,0.466,0.38,0.476,0.438,0.568,0.327,0.749,0.492,0.235,0.235,0.336
"CC1(C)CCC(CN2CCN(c3ccc(C(=O)NS(=O)(=O)c4ccc(NCC5CCOCC5)c([N+](=O)[O-])c4)c(Oc4cnc5[nH]ccc5c4)c3)CC2)=C(c2ccc(Cl)cc2)C1 [Venetoclax] + CS(=O)(=O)CCNCc1ccc(-c2ccc3ncnc(Nc4ccc(OCc5cccc(F)c5)c(Cl)c4)c3c2)o1 [Lapatinib] (first compound max 1 µM, 7x7, partner max 10 µM)",-0.0001,-0.019,-0.0675,-0.047,0.0109,-0.0254,0.534,0.148,0.585,0.192,0.223,0.208,0.322,0.468,0.368,0.345,0.509,0.201,0.25,0.823
"Cc1cc2ncnn2cc1Nc1ncc2c(n1)n(C1CCOCC1)c(=O)n2C [AZD7648] + COc1cc([C@@H]2c3cc4c(cc3[C@@H](O[C@@H]3O[C@@H]5CO[C@@H](C)O[C@H]5[C@H](O)[C@H]3O)[C@H]3COC(=O)[C@H]23)OCO4)cc(OC)c1O [Etoposide] (first compound max 10 µM, 7x7, partner max 10 µM)",0.0997,0.0611,-0.0009,0.0025,0.0429,0.0551,0.36,0.906,0.36,0.199,0.787,0.584,0.335,0.768,0.469,0.879,0.945,0.551,0.398,0.258
